US12612386B2, “Heteroaryl-triazole compounds as pesticides” (Bayer Aktiengesellschaft, priority 2020, dated 2026)

Columns and labels:
Assay type in all cases: in vivo
[1] = test system: fall armyworm larvae (Spodoptera frugiperda); assay: whole plant or invertebrate; settings: 168 h
Method in brief: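 Maize leaf sections sprayed with compound in acetone/DMF with alkylarylpolyglycol ether emulsifier diluted in water, then infested with fall armyworm larvae once dry. Mortality (%) scored after 7 days; 100% = all caterpillars killed.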

[2] = test system: larvae of the banded cucumber beetle (Diabrotica balteata); assay: Diabrotica balteata spray test; settings: 168 h, 100 g/ha (=32 μg/well), after 7 days, read-out: efficacy (seedling growth)
Method in brief: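 Germinated wheat seeds on agar (5 per well) were sprayed with compound formulated in acetone/DMF and diluted in water with 1000 ppm emulsifier. Each unit was then infested with 10–20 larvae. Efficacy % was scored after 7 days as seedling growth relative to an untreated, uninfested control (100% = normal growth).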

[3] = test system: cattle tick larvae (Rhipicephalus microplus), strain Parkhurst, resistant against synthetic pyrethroids; assay: Rhipicephalus (Boophilus) microplus in-vitro contact test, larval cattle tick; settings: 5 μg/cm^2 (=500 g/ha), after 48 hours
Experimental: Rhipicephalus (Boophilus) Microplus—In-Vitro Contact Tests Larval Cattle Tick (Strain Parkhurst, Resistant Against Synthetic Pyrethroids)
9 mg compound is solved in 1 mL acetone and diluted with acetone to the desired concentration. 250 μL of the test solution is filled in 25 mL glass test tubes and homogeneously distributed on the inner walls by rotation and tilting on a shaking device (2 h at 30 rpm). With a compound concentration of 900 ppm, an inner surface of 44.7 cm^2 and a homogeneous distribution, a dose of 5 μg/cm^2 is achieved.
After the solvent has evaporated, each test tube is filled with 20-50 cattle tick larvae (Rhipicephalus microplus), closed with a perforated lid and incubated in a horizontal position at 85% relative humidity and 27° C. in an incubator. After 48 hours efficacy is determined. The larvae are patted on the ground of the tubes and negative geotactic behavior is recorded.
An efficacy of 100% means all larvae are dead or moribund; 0% means no larvae are dead or moribund.

[4] = test system: larvae of the southern green stink bug (Nezara viridula); assay: whole plant or invertebrate; settings: 96 h
Method in brief: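 Compound in acetone/DMF was diluted in water with 1000 ppm alkylarylpolyglycol ether emulsifier. Barley plants were sprayed with it, then infested with Nezara viridula larvae. Mortality % was scored after 4 days (100% = all killed).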

[5] = test system: green peach aphid (Myzus persicae); assay: Myzus persicae spray test (MYZUPE); settings: 120 h, 100 g/ha, after 5 days
Experimental: Myzus persicae—Spray Test
• Solvent: 78.0 parts by weight acetone • 1.5 parts by weight dimethylformamide • Emulsifier: alkylarylpoly glycol ether
(§1) To produce a suitable preparation of active compound, 1 part by weight of active compound is mixed with the stated amount of solvents and is diluted with water, containing an emulsifier concentration of 1000 ppm, to the desired concentration. Further test concentrations are prepared by dilution with emulsifier containing water.
Chinese cabbage (Brassica pekinensis) leaf disks infected with all instars of the green peach aphid (Myzus persicae), are sprayed with a preparation of the active ingredient of the desired concentration.
After 5 days mortality in % is determined. 100% means all aphids have been killed and 0% means none of the aphids have been killed.
Myzus persicae—Spray Test (MYZUPE)
• Solvent: 78.0 parts by weight acetone • 1.5 parts by weight dimethylformamide • Emulsifier: alkylarylpolyglycol ether
After the specified period of time, mortality in % is determined. 100% means all aphids have been killed and 0% means none of the aphids have been killed.

[6] = test system: adult mosquitoes Aedes aegypti strain MONHEIM; assay: Aedes aegypti test (AEDSAE surface treatment & contact assay); settings: 24 hours after contact, read-out: efficacy (mortality); for mortality at 4 mg/m2: surface concentration 4 mg/m^2, 30 min exposure; for mortality at 20 mg/m2: surface concentration 20 mg/m^2, 30 min exposure
Experimental: Aedes aegypti Test (AEDSAE Surface Treatment & Contact Assay)
Solvent: Aceton+2000 ppm rapeseed oil methyl ester (RME)
This solution is pipetted onto a glazed tile and after evaporation of the acetone, adult mosquitoes of the species Aedes aegypti strain MONHEIM are placed onto the dried surface. The exposure time is 30 minutes. Mortality in percent (%) is determined 24 hours after contact of the insects to the treated surface. 100% mortality means that all tested insects are dead, whereas 0% means that no insect died.

[7] = test system: brown planthopper (Nilaparvata lugens); assay: Nilaparvata lugens spray test; settings: 96 h
Experimental: Nilaparvata lugens—Spray Test
• Solvent: 78.0 parts by weight of acetone • 1.5 parts by weight of dimethylformamide • Emulsifier: alkylarylpolyglycol ether
as §1
Rice plants (Oryza sativa) are sprayed with a preparation of the active ingredient of the desired concentration and the plants are infested with the brown planthopper (Nilaparvata lugens).
After 4 days mortality in % is determined. 100% means all planthoppers have been killed and 0% means none of the planthoppers have been killed.

Row | SMILES | mortality at 100 g/ha [1] [%] | pest or weed control at 32 µg/disc, 100 g/ha [2] [%] | efficacy (larvae dead or moribund) [3] [%] | mortality at 500 g/ha [4] [%] | mortality at 100 g/ha [5] [%] | mortality at 4 mg/m2 [6] [%] | mortality at 20 mg/m2 [6] [%] | mortality at 500 g/ha [7] [%] | mortality at 100 g/ha [4] [%]
1 | Cc1nc([C@H](C)NC(=O)c2cc(OC(F)F)cc(OC(F)F)c2)n(-c2cc(C#N)ncn2)n1 [I-22] | 100 | 100 | 100 | 100 | – | – | – | – | –
2 | Cc1nc([C@H](C)NC(=O)c2cc(Cl)cc(C(F)(F)F)c2)n(-c2cc(C#N)ncn2)n1 [I-41] | 100 | 100 | – | 90 | 100 | 80 to 100 | – | – | –
3 | Cc1nc([C@H](C)NC(=O)c2cc(OC(F)(F)F)cc(C3CC3)c2)n(-c2cc(C#N)ncn2)n1 [I-25] | 100 | 100 | – | 100 | – | 80 to 100 | 80 to 100 | – | –
4 | C[C@H](NC(=O)c1cc(OC(F)(F)F)cc(OC(F)(F)F)c1)c1nc(C2CC2)nn1-c1cc(C#N)ncn1 [I-37] | – | 80 | 100 | – | – | – | – | – | –
5 | CC(C)N(C)C(=O)c1cc(-n2ncnc2[C@H](C)NC(=O)c2cc(Br)cc(Br)c2)ncn1 [I-40] | 100 | 100 | – | – | 90 | – | 80 to 100 | – | –
6 | C[C@H](NC(=O)c1cc(Cl)nc(C2(C#N)CC2)c1)c1ncnn1-c1cc(C#N)ncn1 [I-35, 2-chloro-6-(1-cyanocyclopropyl)-N-[(1S)-1-[2-(6-cyanopyrimidin-4-yl)-1,2,4-triazol-3-yl]ethyl]pyridine-4-carboxamide] | 100 | 100 | 100 | – | – | – | – | – | –
7 | C[C@H](NC(=O)c1cc(OC(F)(F)F)cc(C(C)(C)F)c1)c1ncnn1-c1cc(C#N)ncn1 [I-142] | 100 | 100 | – | 100 | 100 | – | – | 100 | –
8 | C[C@H](NC(=O)c1cc(C#N)cc(OC(F)(F)F)c1)c1ncnn1-c1cc(C(N)=O)ncn1 [I-121] | 100 | 100 | – | 100 | 90 | – | – | 100 | 100
9 | C[C@H](NC(=O)c1cc(OC(F)(F)F)cc(S(C)(=O)=O)c1)c1ncnn1-c1cc(C(N)=O)ncn1 [I-82] | 100 | 100 | – | 100 | 90 | – | – | 100 | –
10 | C[C@H](NC(=O)c1cc(Cl)cc(S(=O)(=O)C(F)F)c1)c1ncnn1-c1cc(C(N)=O)ncn1 [I-118] | 100 | 100 | – | 100 | 90 | – | – | 100 | 100
11 | C[C@H](NC(=O)c1cc(OC(F)(F)F)cc(S(C)(=O)=O)c1)c1ncnn1-c1cc(C#N)ncn1 [I-19] | 100 | 100 | – | 100 | 100 | 80 to 100 | 80 to 100 | – | 90
12 | Cc1nc([C@H](C)NC(=O)c2cc(C(F)(F)F)cc(C(F)(F)F)c2)n(-c2cc(C(N)=O)ncn2)n1 [I-136] | 100 | 100 | – | 100 | 90 | – | – | 100 | –
13 | C[C@H](NC(=O)c1cc(C(F)(F)F)cc(S(C)(=O)=O)c1)c1ncnn1-c1cc(C(N)=O)ncn1 [I-78] | 100 | 100 | – | 100 | 90 | – | – | 100 | –
14 | CNC(=O)c1cc(-n2ncnc2[C@H](C)NC(=O)c2cc(Br)cc(OC(F)F)c2)ncn1 [I-72] | 100 | 80 | – | 100 | 90 | – | – | 100 | –
